Holding throughout (assay): NCI tumour cell line growth inhibition, 48 h
Assay [1] concerns LXFL 529 NSCLC.
Assay [2] has as its system DMS 114 small cell lung.
In assay [3] the test system is XF 498 CNS.
Assay [4] relates to M19-MEL melanoma.
For assay [5], the system named is SNB-78 CNS.
For assay [6], the system named is DMS 273 small cell lung.

Each structure is given as a SMILES string.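 Growth conditions: 96-well plates. Treatment: test compound, 48 hours, 5 concentrations. Analysis: linear interpolation between bracketing concentrations; unreached endpoints set to highest concentration. The concentration for 50% growth inhibition is given as GI50. TGI is the concentration that stops growth completely.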

Turning to `COc1ccc(CC2NCCc3c2[nH]c2ccccc32)cc1` (centres undefined), the TGI in assay [1] was above 100 µM; in assay [2] it was above 100 µM; in assay [3], 66.5 µM; in assay [4], above 100 µM; in assay [5], above 100 µM; in assay [6], 87.7 µM.
`C1CN2CCN3CCN4CCN1[P+]243`: the TGI in assay [1], in assay [2], in assay [3], in assay [4], in assay [5] and in assay [6] was above 100 µM in each case.
For the compound `Cc1cc(Cl)ccc1NC(=O)C(=O)Cc1nc2ccccc2o1`, the TGI in assay [1], in assay [2], in assay [3], in assay [4], in assay [5] and in assay [6] was above 100 µM throughout.
`[N-]=[N+]=N[C@H]1C[C@@H](CO)O[C@H]1n1cnc2c(N)ncnc21`: the TGI in assay [1], in assay [2], in assay [3], in assay [4], in assay [5] and in assay [6] was above 100 µM each time.
`OCC1OC(c2nc(C3=NCCCN3)cs2)C(O)C1O` (centres undefined): the TGI in assay [1], in assay [2], in assay [3], in assay [4], in assay [5] and in assay [6] was above 100 µM throughout.
Consider `N#C/C1=C(\N)CCSSSC1`, for which the TGI in assay [1], in assay [2], in assay [3], in assay [4], in assay [5] and in assay [6] was above 100 µM throughout.
With `O=C1/C(=C/c2ccc(Cl)cc2)CCC1CCN1CCOCC1` (centres undefined), the TGI in assay [1], in assay [2], in assay [3], in assay [4], in assay [5] and in assay [6] was above 100 µM in each case.
Consider `CC12CP(=O)(c3ccccc3)CC1C2(Cl)Cl` (centres undefined), for which the TGI in assay [1], in assay [2], in assay [3], in assay [4], in assay [5] and in assay [6] was above 100 µM in each case.
For the compound `COc1cccc(C2=NC(C(C)C)CO2)c1` (centres undefined), the TGI in assay [1], in assay [2], in assay [3], in assay [4], in assay [5] and in assay [6] was above 100 µM each time.
As to `CCC[CH2][Sn]([Cl])([CH2]CCC)[CH2]CCC`, the GI50 in assay [1] was 0.0645 µM; in assay [2], 0.068 µM; in assay [3] it was 0.0599 µM; in assay [4] it was 0.11 µM; in assay [5], 0.129 µM. Also, the TGI in assay [1] is 0.202 µM; in assay [2] it was 0.225 µM; in assay [3], 0.202 µM; in assay [4], 0.236 µM; in assay [5], 0.313 µM.
Turning to `O=C(/C=C/c1cccc2ccccc12)c1ccccc1Cl`, the TGI in assay [1] is 26.8 µM; in assay [2], 27.6 µM; in assay [3], 20.6 µM; in assay [5], 40.9 µM; in assay [6], 31.5 µM.
In the case of `CCOc1ccc(NC(=O)C(=O)CC(=O)c2c(C)n([O-])c3ccccc3[n+]2=O)cc1`, the TGI in assay [1], in assay [2], in assay [3], in assay [4], in assay [5] and in assay [6] was above 100 µM each time.
For the compound `CCCc1nc(NC#N)nc(C(=O)Nc2ccccc2)c1CC`, the TGI in assay [1], in assay [2], in assay [3], in assay [4], in assay [5] and in assay [6] was above 100 µM throughout.
Regarding `Cc1cc(N(CCC#N)CCC#N)ccc1N=Nc1ccc(C(=O)O)cc1`, the TGI in assay [1], in assay [2], in assay [3], in assay [4], in assay [5] and in assay [6] was above 100 µM throughout.
Turning to `O=C1/C(=C/c2ccc3c(c2)OCO3)SC2C=Nc3ccccc3N12` (centres undefined), the TGI in assay [1], in assay [2], in assay [3], in assay [4], in assay [5] and in assay [6] was above 100 µM each time.
Turning to `NC(=O)C12CC3CC(CC(F)(C3)C1)C2`, the TGI in assay [1], in assay [2], in assay [3], in assay [4], in assay [5] and in assay [6] was above 100 µM each time.

(Values after PubChem BioAssay (NCI).)
